The target of this assay is T1, Recombinant human cathepsin A (Homo sapiens, UniProt P10619).
T1 construct: Recombinant human cathepsin A (residues 29-480, with a C-terminal 10-His tag); 10-His (C); purchased R&D Systems 1049-SE
T1 sequence (P10619 29-326 limits assumed): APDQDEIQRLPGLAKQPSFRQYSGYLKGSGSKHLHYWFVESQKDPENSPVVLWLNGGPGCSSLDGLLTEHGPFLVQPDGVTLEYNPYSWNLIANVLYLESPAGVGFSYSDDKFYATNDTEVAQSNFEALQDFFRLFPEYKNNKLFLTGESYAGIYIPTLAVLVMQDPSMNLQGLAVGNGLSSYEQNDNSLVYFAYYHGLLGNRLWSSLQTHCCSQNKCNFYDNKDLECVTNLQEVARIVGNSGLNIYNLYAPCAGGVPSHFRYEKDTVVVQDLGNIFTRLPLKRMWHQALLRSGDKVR
T1 sequence (P10619 327-480 limits assumed): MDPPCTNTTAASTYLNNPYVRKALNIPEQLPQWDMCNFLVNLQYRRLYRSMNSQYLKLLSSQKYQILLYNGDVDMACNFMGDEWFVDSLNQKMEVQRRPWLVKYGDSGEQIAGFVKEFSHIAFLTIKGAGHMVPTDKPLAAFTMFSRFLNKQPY
In words: Cathepsin A inhibitory activity. Type of assay: biochemical. As to conditions: activated recombinant human cathepsin A 833 ng/ml, Bodipy FL-labeled bradykinin substrate 2 μM, pH 5.5, room temperature. In short, it runs like this:
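Enzyme (residues 29-480, C-terminal His tag) pre-activated by cathepsin L at 37° C, then quenched with E-64. Compound preincubated 15 min at room temperature in 25 mM MES pH 5.5 with 5 mM DTT, then 2 μM Bodipy FL-bradykinin added for 15 min at 833 ng/ml enzyme. Product/substrate separated by microfluidic capillary electrophoresis; IC50 from multi-concentration inhibition.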

Each structure is given as a SMILES string.

For the compound `Cc1ccccc1-c1nc(C(=O)N[C@@H](Cc2ccc(Cl)cc2)C(=O)O)cs1` [Example 72, (S)-3-(4-Chloro-phenyl)-2-[(2-o-tolyl-thiazole-4-carbonyl)-amino]-propionic acid], the IC50 stood at 16600 nM.

Consider `O=C(O)C[C@H](NC(=O)c1csc(-c2ccccc2Cl)n1)c1cccc(Cl)c1Cl` [Example 73, (S)-3-{[2-(2-Chloro-phenyl)-thiazole-4-carbonyl]-amino}-3-(2,3-dichloro-phenyl)-propionic acid], for which the IC50 is 70 nM. Turning to `COc1cccc([C@H](CC(=O)O)NC(=O)c2csc(-c3ccccc3Cl)n2)c1OC` [Example 74, (S)-3-{[2-(2-Chloro-phenyl)-thiazole-4-carbonyl]-amino}-3-(2,3-dimethoxy-phenyl)-propionic acid], the IC50 stood at 111 nM.

Turning to `O=C(O)C[C@H](NC(=O)c1csc(-c2ccccc2Cl)n1)c1ccc(Cl)cc1Cl` [Example 75, (S)-3-{[2-(2-Chloro-phenyl)-thiazole-4-carbonyl]-amino}-3-(2,4-dichloro-phenyl)-propionic acid], the IC50 came to 288 nM. In the case of `O=C(O)C[C@H](NC(=O)c1csc(-c2ccccc2Cl)n1)c1ccccc1F` [Example 76, (S)-3-{[2-(2-Chloro-phenyl)-thiazole-4-carbonyl]-amino}-3-(2-fluoro-phenyl)-propionic acid], the IC50 worked out at 658 nM. Take `O=C(O)C[C@H](NC(=O)c1csc(-c2ccccc2Cl)n1)c1ccccc1C(F)(F)F` [Example 77, (S)-3-{[2-(2-Chloro-phenyl)-thiazole-4-carbonyl]-amino}-3-(2-trifluoromethyl-phenyl)-propionic acid]: the IC50 was determined as 712 nM. Take `O=C(O)C[C@H](NC(=O)c1csc(-c2ccccc2Cl)n1)c1cccc(F)c1` [Example 78, (S)-3-{[2-(2-Chloro-phenyl)-thiazole-4-carbonyl]-amino}-3-(3-fluoro-phenyl)-propionic acid]: the IC50 amounted to 257 nM.

Take `COc1cccc([C@H](CC(=O)O)NC(=O)c2csc(-c3ccccc3Cl)n2)c1` [Example 79, (S)-3-{[2-(2-Chloro-phenyl)-thiazole-4-carbonyl]-amino}-3-(3-methoxy-phenyl)-propionic acid]: the IC50 came out at 705 nM. As for `O=C(O)C[C@H](NC(=O)c1csc(-c2ccccc2Cl)n1)c1ccc(F)cc1` [Example 80, (S)-3-{[2-(2-Chloro-phenyl)-thiazole-4-carbonyl]-amino}-3-(4-fluoro-phenyl)-propionic acid], the IC50 was 148 nM.

As for `O=C(N[C@@H](Cc1ccc(Cl)cc1)C(=O)O)c1csc(-c2ccccc2Cl)n1` [Example 81, (S)-3-(4-Chloro-phenyl)-2-{[2-(2-chloro-phenyl)-thiazole-4-carbonyl]-amino}-propionic acid], the IC50 was more than 10000 nM. The value for `Cc1ccccc1[C@H](CC(=O)O)NC(=O)c1csc(-c2ccccc2Cl)n1` [Example 82, (S)-3-{[2-(2-Chloro-phenyl)-thiazole-4-carbonyl]-amino}-3-o-tolyl-propionic acid] was 30 nM; that for `O=C(O)C[C@H](NC(=O)c1csc(-c2ccccc2Cl)n1)c1ccccc1` [Example 83, (S)-3-{[2-(2-Chloro-phenyl)-thiazole-4-carbonyl]-amino}-3-phenyl-propionic acid] was 186 nM. As for `O=C(O)C[C@H](NC(=O)c1csc(-c2ccccc2F)n1)c1ccccc1C(F)(F)F` [Example 84, (S)-3-{[2-(2-Fluoro-phenyl)-thiazole-4-carbonyl]-amino}-3-(2-trifluoromethyl-phenyl)-propionic acid], the IC50 is 1350 nM. For `COc1cccc([C@H](CC(=O)O)NC(=O)c2csc(-c3ccccc3F)n2)c1` [Example 85, (S)-3-{[2-(2-Fluoro-phenyl)-thiazole-4-carbonyl]-amino}-3-(3-methoxy-phenyl)-propionic acid], the IC50 was found to be 878 nM.

As for `COc1ccc([C@H](CC(=O)O)NC(=O)c2csc(-c3ccccc3F)n2)cc1` [Example 86, (S)-3-{[2-(2-Fluoro-phenyl)-thiazole-4-carbonyl]-amino}-3-(4-methoxy-phenyl)-propionic acid], the IC50 stood at 975 nM.

`Cc1ccccc1[C@H](CC(=O)O)NC(=O)c1csc(-c2ccccc2F)n1` [Example 87, (S)-3-{[2-(2-Fluoro-phenyl)-thiazole-4-carbonyl]-amino}-3-o-tolyl-propionic acid]: the IC50 amounted to 117 nM. The value for `O=C(O)C[C@H](NC(=O)c1csc(-c2ccccc2F)n1)c1ccccc1` [Example 88, (S)-3-{[2-(2-Fluoro-phenyl)-thiazole-4-carbonyl]-amino}-3-phenyl-propionic acid] was 923 nM. The result for `O=C(O)C[C@H](NC(=O)c1csc(-c2cccc(Cl)c2)n1)c1cccc(Cl)c1Cl` [Example 89, (S)-3-{[2-(3-Chloro-phenyl)-thiazole-4-carbonyl]-amino}-3-(2,3-dichloro-phenyl)-propionic acid] reads 1020 nM; that for `COc1cccc([C@H](CC(=O)O)NC(=O)c2csc(-c3cccc(Cl)c3)n2)c1OC` [Example 90, (S)-3-{[2-(3-Chloro-phenyl)-thiazole-4-carbonyl]-amino}-3-(2,3-dimethoxy-phenyl)-propionic acid], 1370 nM; that for `O=C(O)C[C@H](NC(=O)c1csc(-c2cccc(Cl)c2)n1)c1ccc(Cl)cc1Cl` [Example 91, (S)-3-{[2-(3-Chloro-phenyl)-thiazole-4-carbonyl]-amino}-3-(2,4-dichloro-phenyl)-propionic acid], 1910 nM. Take `O=C(O)C[C@H](NC(=O)c1csc(-c2cccc(Cl)c2)n1)c1ccccc1F` [Example 92, (S)-3-{[2-(3-Chloro-phenyl)-thiazole-4-carbonyl]-amino}-3-(2-fluoro-phenyl)-propionic acid]: the 50% inhibitory concentration (IC50) came out at 1310 nM. `O=C(O)C[C@H](NC(=O)c1csc(-c2cccc(Cl)c2)n1)c1ccccc1C(F)(F)F` [Example 93, (S)-3-{[2-(3-Chloro-phenyl)-thiazole-4-carbonyl]-amino}-3-(2-trifluoromethyl-phenyl)-propionic acid]: the IC50 worked out at 10400 nM. The result for `O=C(O)C[C@H](NC(=O)c1csc(-c2cccc(Cl)c2)n1)c1cccc(F)c1` [Example 94, (S)-3-{[2-(3-Chloro-phenyl)-thiazole-4-carbonyl]-amino}-3-(3-fluoro-phenyl)-propionic acid] reads 3730 nM; that for `O=C(O)C[C@H](NC(=O)c1nc(-c2ccccc2)cs1)c1cccc(Cl)c1Cl` [Example 95, (S)-3-(2,3-Dichloro-phenyl)-3-[(4-phenyl-thiazole-2-carbonyl)-amino]-propionic acid], 38 nM.

For the compound `O=C(O)C[C@H](NC(=O)c1nc(-c2ccccc2)cs1)c1ccc(Cl)cc1Cl` [Example 96, (S)-3-(2,4-Dichloro-phenyl)-3-[(4-phenyl-thiazole-2-carbonyl)-amino]-propionic acid], the IC50 worked out at 254 nM.

As for `O=C(O)C[C@H](NC(=O)c1nc(-c2ccccc2)cs1)c1ccc(C(F)(F)F)cc1` [Example 97, (S)-3-[(4-Phenyl-thiazole-2-carbonyl)-amino]-3-(4-trifluoromethyl-phenyl)-propionic acid], the IC50 came out at 406 nM. Consider `Cc1ccccc1[C@H](CC(=O)O)NC(=O)c1csc(-c2cccc(Cl)c2)n1` [Example 98, (S)-3-{[2-(3-Chloro-phenyl)-thiazole-4-carbonyl]-amino}-3-o-tolyl-propionic acid], for which the IC50 worked out at 660 nM.

As to `O=C(O)C[C@H](NC(=O)c1nc(-c2ccccc2)cs1)c1cccc(C(F)(F)F)c1` [Example 99, (S)-3-[(4-Phenyl-thiazole-2-carbonyl)-amino]-3-(3-trifluoromethyl-phenyl)-propionic acid], the IC50 amounted to 3310 nM. The value for `O=C(O)C[C@H](NC(=O)c1csc(-c2ccc(Cl)cc2)n1)c1cccc(Cl)c1Cl` [Example 100, (S)-3-{[2-(4-Chloro-phenyl)-thiazole-4-carbonyl]-amino}-3-(2,3-dichloro-phenyl)-propionic acid] was 686 nM; that for `COc1cccc([C@H](CC(=O)O)NC(=O)c2csc(-c3ccc(Cl)cc3)n2)c1OC` [Example 101, (S)-3-{[2-(4-Chloro-phenyl)-thiazole-4-carbonyl]-amino}-3-(2,3-dimethoxy-phenyl)-propionic acid] was 1120 nM. The value for `O=C(O)C[C@H](NC(=O)c1csc(-c2ccc(Cl)cc2)n1)c1ccc(Cl)cc1Cl` [Example 102, (S)-3-{[2-(4-Chloro-phenyl)-thiazole-4-carbonyl]-amino}-3-(2,4-dichloro-phenyl)-propionic acid] was 2680 nM.

On to `O=C(O)[C@@H]1CN(C(=O)c2nc(-c3ccc(C(F)(F)F)cc3)cs2)C[C@H]1c1ccccc1` [Example 103, (3S,4R)-4-Phenyl-1-[4-(4-trifluoromethyl-phenyl)-thiazole-2-carbonyl]-pyrrolidine-3-carboxylic acid], for which the IC50 is more than 10000 nM.

Turning to `O=C(O)C[C@H](NC(=O)c1csc(-c2ccc(Cl)cc2)n1)c1ccccc1C(F)(F)F` [Example 104, (S)-3-{[2-(4-Chloro-phenyl)-thiazole-4-carbonyl]-amino}-3-(2-trifluoromethyl-phenyl)-propionic acid], the IC50 came out at 5390 nM.

Usually IC50 stands for the concentration needed to halve the response being measured.
